Results from US20070128217A1 (priority 2003, published 2007).

What was measured:
[1] = tested on: control sera (pooled serum of ten healthy LUMC hospital workers; commercial negative donor pooled serum from the Dutch bloodbank); assay type: binding, human; parameters: Binding of Control serum LUMC to linear peptides / Binding of Control serum Blood-bank to linear peptides / Binding of Control serum LUMC to looped peptides / Binding of Control Serum Blood-Bank to Looped peptides / Binding of Control serum LUMC to linear peptides of the protein M of SARS-CoV Urbani / Binding of Control serum Blood-bank to linear peptides of the protein M of SARS-CoV Urbani / Binding of Control serum LUMC to looped peptides of the protein M of SARS-CoV Urbani / Binding of Control Serum Blood-Bank to Looped peptides of the protein M of SARS-CoV Urbani: unit not given here
[2] = tested on: recombinant human anti-SARS-CoV antibody 03-018; assay type: binding; parameters: Binding of antibody 03-018 to linear peptides of the N protein of SARS-CoV Urbani / Binding of antibody 03-018 to looped/cyclic peptides of the N protein of SARS-CoV Urbani: unit not given here
[3] = tested on: antibodies in sera from SARS patients (sera 1a, 1b, 2, 6, 37, 62, London, SARS-yellow, SARS-green); assay type: binding, human; parameters: Binding of serum 6 to linear peptides of protein X1 of SARS-CoV Urbani / Binding of serum 37 to linear peptides of protein X1 of SARS-CoV Urbani / Binding of serum 6 to looped/cyclic peptide (PEPSCAN-ELISA) / Binding of serum 37 to looped/cyclic peptide (PEPSCAN-ELISA) / Binding of serum 37 to looped/cyclic peptides of protein X1 of SARS-CoV Urbani / Binding of serum 6 to linear peptides of protein X2 / Binding of serum 37 to linear peptides of protein X2 / Binding of serum 37 to looped/cyclic peptides of protein X2 of SARS-CoV Urbani / Binding of serum 6 to linear peptides of protein M of SARS-CoV Urbani / Binding of serum 37 to linear peptides of protein M of SARS-CoV Urbani / Binding of serum 6 to looped/cyclic peptides of protein M of SARS-CoV Urbani / Binding of serum 37 to looped/cyclic peptides of protein M of SARS-CoV Urbani / Binding of serum 6 to linear peptides of protein X3 of SARS-CoV Urbani / Binding of serum 37 to linear peptides of protein X3 of SARS-CoV Urbani / Binding of serum 37 to looped/cyclic peptides of protein X3 of SARS-CoV Urbani / Binding of serum 6 to linear peptides of protein X4 of SARS-CoV Urbani / Binding of serum 37 to linear peptides of protein X4 of SARS-CoV Urbani / Binding of serum 37 to looped/cyclic peptides of protein X4 of SARS-CoV Urbani / Binding of serum 6 to linear peptides of protein X5 of SARS-CoV Urbani / Binding of serum 37 to linear peptides of protein X5 of SARS-CoV Urbani / Binding of serum 37 to looped/cyclic peptides of protein X5 of SARS-CoV Urbani / Binding of serum 6 to linear peptides of protein N of SARS-CoV Urbani / Binding of serum 37 to linear peptides of protein N of SARS-CoV Urbani / Binding of serum 6 to linear peptide (PEPSCAN-ELISA) / Binding of serum 1a to looped/cyclic peptides of protein N of SARS-CoV Urbani / Binding of serum 1b to looped/cyclic peptides of protein N of SARS-CoV Urbani / Binding of serum 2 to looped/cyclic peptides of protein N of SARS-CoV Urbani / Binding of serum 6 to looped/cyclic peptides of protein N of SARS-CoV Urbani / Binding of serum 37 to looped/cyclic peptides of protein N of SARS-CoV Urbani / Binding of serum 62 to looped/cyclic peptides of protein N of SARS-CoV Urbani / Binding of serum London to looped/cyclic peptides of protein N of SARS-CoV Urbani / Binding of serum SARS-green to looped/cyclic peptides of protein N of SARS-CoV Urbani: unit not given here
[4] = tested on: rabbit serum obtained by immunizing a rabbit with the SARS-CoV strain Frankfurt 1; assay type: binding; parameters: Binding of a rabbit serum to linear peptides / Binding of a rabbit serum to looped peptides / Rabbit serum linear peptides / Rabbit serum looped peptides / Binding of a rabbit serum to linear peptides of protein N of SARS-CoV Urbani (Rabbit serum linear peptides) / Binding of a rabbit serum to looped/cyclic peptides of protein N of SARS-CoV Urbani (Rabbit serum looped peptides): unit not given here

| Sequence | Binding of antibody 03-018 to linear peptides of the N protein of SARS-CoV Urbani [2] | Binding of antibody 03-018 to looped/cyclic peptides of the N protein of SARS-CoV Urbani [2] | Binding of serum 1a to linear peptides of protein N of SARS-CoV Urbani [3] | Binding of serum 1a to looped/cyclic peptides of protein N of SARS-CoV Urbani [3] | Binding of serum 1b to linear peptides of protein N of SARS-CoV Urbani [3] | Binding of serum 1b to looped/cyclic peptides of protein N of SARS-CoV Urbani [3] | Binding of serum 2 to linear peptides of protein N of SARS-CoV Urbani [3] | Binding of serum 2 to looped/cyclic peptides of protein N of SARS-CoV Urbani [3] | Binding of serum 6 to linear peptides of protein N of SARS-CoV Urbani [3] | Binding of serum 6 to looped/cyclic peptides of protein N of SARS-CoV Urbani [3] | Binding of serum 37 to linear peptides of protein N of SARS-CoV Urbani [3] | Binding of serum 37 to looped/cyclic peptides of protein N of SARS-CoV Urbani [3] | Binding of serum 62 to linear peptides of protein N of SARS-CoV Urbani [3] | Binding of serum 62 to looped/cyclic peptides of protein N of SARS-CoV Urbani [3] | Binding of serum London to linear peptides of protein N of SARS-CoV Urbani [3] | Binding of serum London to looped/cyclic peptides of protein N of SARS-CoV Urbani [3] | Binding of serum SARS-green to looped/cyclic peptides of protein N of SARS-CoV Urbani [3] | Binding of serum SARS-yellow to looped/cyclic peptides of protein N of SARS-CoV Urbani [3] | Binding of a rabbit serum to linear peptides of protein N of SARS-CoV Urbani (Rabbit serum linear peptides) [4] | Binding of a rabbit serum to looped/cyclic peptides of protein N of SARS-CoV Urbani (Rabbit serum looped peptides) [4] | other results |
| --- | --- | --- | --- | --- | --- | --- | --- | --- | --- | --- | --- | --- | --- | --- | --- | --- | --- | --- | --- | --- | --- |
| DYKHWPQIAQFAPSA | 0.1 | 0.2 | 0.3 | 0.4 | 0.2 | 0.3 | 0.2 | 0.4 | 0.2 | 0.2 | 0.9 | 0.6 | 0.9 | 0.6 | 0.7 | 0.5 | 0.2 | 0.7 | 0.1 | 0.5 | Control Serum Blood-Bank Looped peptides [1]: 0.6; Control serum Blood-bank linear peptides [1]: 0.9; Control serum LUMC linear peptides [1]: 0.8; Control serum LUMC looped peptides [1]: 0.7; Binding of serum SARS-green to linear peptides of protein N of SARS-CoV Urbani [3]: 0.4; Binding of serum SARS-yellow to linear peptides of protein N of SARS-CoV Urbani [3]: 0.8 |
| PQSNQRSAPRITFGG | – | – | 0.3 | 0.5 | 0.2 | 0.3 | 0.2 | 0.5 | 0.1 | 0.5 | 0.6 | 0.8 | 0.6 | 0.7 | 0.4 | 0.5 | 0.4 | 0.6 | – | – | Binding of Control Serum Blood-Bank to Looped peptides [1]: 0.8; Binding of Control serum Blood-bank to linear peptides [1]: 0.5; Binding of Control serum LUMC to linear peptides [1]: 0.6; Binding of Control serum LUMC to looped peptides [1]: 0.7; Recognition of the peptide by antibody 03-018 [2]: recognized; Binding of serum SARS-green to linear peptides of protein N of SARS-CoV Urbani [3]: 0.3; Binding of serum SARS-yellow to linear peptides of protein N of SARS-CoV Urbani [3]: 0.5; Recognition of the peptide by the rabbit serum [4]: also recognized |
| SASAFFGMSRIGMEV | 0.1 | 0.2 | 0.3 | 0.5 | 0.2 | 0.3 | 0.2 | 0.6 | 0.2 | 0.5 | 0.7 | 0.8 | 0.6 | 0.6 | 0.5 | 1.6 | 0.4 | 0.9 | 0.1 | 0.6 | Control Serum Blood-Bank Looped peptides [1]: 0.7; Control serum Blood-bank linear peptides [1]: 0.7; Control serum LUMC linear peptides [1]: 0.6; Control serum LUMC looped peptides [1]: 0.7; Binding of serum SARS-green to linear peptides of protein N of SARS-CoV Urbani [3]: 0.4; Binding of serum SARS-yellow to linear peptides of protein N of SARS-CoV Urbani [3]: 0.7 |
| QTQGNFGDQDLIRQG | 0.1 | 0.2 | – | 0.5 | – | 0.4 | – | 0.5 | – | 0.3 | – | 0.9 | – | 0.9 | – | 0.6 | 0.4 | 0.8 | 0.1 | 0.6 | Binding of Control Serum Blood-Bank to Looped peptides [1]: 0.8; Binding of Control serum Blood-bank to linear peptides [1]: 0.9; Binding of Control serum LUMC to linear peptides [1]: 0.9; Binding of Control serum LUMC to looped peptides [1]: 0.7; Recognition of the peptide by sera of SARS-CoV infected individuals, and form (linear, looped/cyclic) in which it is recognized [3]: recognized in linear form |
| LNQLESKVSGKGQQQ | 0.1 | 0.3 | – | 0.4 | – | 0.3 | – | 0.6 | – | 0.4 | – | 0.6 | – | 0.6 | – | 0.5 | 0.5 | 0.8 | 0.2 | 0.4 | Binding of Control Serum Blood-Bank to Looped peptides [1]: 0.7; Binding of Control serum Blood-bank to linear peptides [1]: 0.8; Binding of Control serum LUMC to linear peptides [1]: 0.7; Binding of Control serum LUMC to looped peptides [1]: 0.7; Binding of serum 1a to linear peptide (PEPSCAN-ELISA) [3]: 0.3; Binding of serum 1b to linear peptide (PEPSCAN-ELISA) [3]: 0.1; Binding of serum 2 to linear peptide (PEPSCAN-ELISA) [3]: 0.3; Binding of serum 6 to linear peptide (PEPSCAN-ELISA) [3]: 0.2; Binding of serum 37 to linear peptide (PEPSCAN-ELISA) [3]: 0.7; Binding of serum 62 to linear peptide (PEPSCAN-ELISA) [3]: 0.9; Binding of serum London to linear peptide (PEPSCAN-ELISA) [3]: 0.6; Binding of serum SARS-green to linear peptide (PEPSCAN-ELISA) [3]: 0.4; Binding of serum SARS-yellow to linear peptide (PEPSCAN-ELISA) [3]: 0.7 |
